Columns and labels:
[1] = system: HEK293; assay: Cytotoxicity against HEK293 cells after 72 hrs by Alamar Blue assay; assay type: cell-based; settings: Homo sapiens, HEK293, 72 h
[2] = system: HepG2; assay: Cytotoxicity against human HepG2 cells after 72 hrs by Alamar Blue assay; assay type: cell-based; settings: HepG2, 72 h
[3] = Selectivity index, ratio of IC50 for chloroquine-sensitive Plasmodium falciparum 3D7 to IC50 for HEK293 cells
[4] = Cytotoxicity against human HepG2 cells assay at 40 uM after 72 hrs by Alamar Blue assay; assay type: cell-based; settings: read-out: INH
[5] = system: Plasmodium falciparum; assay: Antimalarial activity against chloroquine-sensitive Plasmodium falciparum 3D7 ring-stage infected in human erythrocytes after 48 hrs by [3H]hypoxanthine assay; assay type: functional, organism-based
[6] = Cytotoxicity against HEK293 cells assay at 40 uM after 72 hrs by Alamar Blue assay; assay type: cell-based; settings: human, read-out: INH
[7] = Selectivity index, ratio of IC50 for chloroquine-sensitive Plasmodium falciparum 3D7 to IC50 for human HepG2 cells

IC50 [5] [µM] | Structure (SMILES) | IC50 [1] [µM] | IC50 [2] [µM] | Ratio IC50 [3] | cytotoxicity at 72 h, 40 µM [4] [%] | cytotoxicity at 72 h, 40 µM [6] [%] | Ratio IC50 [7]
– | CCN(CC)CCCC(C)Nc1ccnc2cc(Cl)ccc12 (centres undefined) [CHLOROQUINE] | 48 | 12.9 | – | – | – | –
0.41 | COC1C(Br)=CO[C@@]2(C=C1Br)ON=C(C(=O)NCCCOc1c(Br)cc(CC[N+](C)(C)C)cc1Br)[C@@H]2O.O=C([O-])C(F)(F)F (some centres undefined) [PSAMMAPLYSIN H] | > 40 | > 40 | >97 | 33 | 35 | >97
1.92 | CNCCc1cc(Br)c(OCCCNC(=O)C2=NO[C@@]3(C=C(Br)C(OC)C(Br)=CO3)[C@H]2O)c(Br)c1 (some centres undefined) [PSAMMAPLYSINS F] | 10.9 | 3.7 | 5 | – | – | 2
5.22 | COC1C(Br)=CO[C@@]2(C=C1Br)ON=C(C(=O)NCCCOc1c(Br)cc(CCN(C)C(N)=O)cc1Br)[C@@H]2O (some centres undefined) [PSAMMAPLYSINS G] | 18.7 | 17.4 | 3 | – | – | 3
